Laboratory results reported in ChEMBL document CHEMBL1127373 (J Med Chem, 1994).

Target: Neuronal acetylcholine receptor
Experiment: Tested for the binding affinity against neuronal nicotinic acetylcholine receptors from whole rat brain

CC[C@H]1C[C@@H](c2cccnc2)N(C)C1
Ki: 50.2 nM

C[C@H]1CC[C@@H](c2cccnc2)N1C
Ki: 34.9 nM

CN1C[C@@H](CF)C[C@H]1c1cccnc1
Ki: 11.1 nM

CN1[C@H](c2ccccc2)CC[C@H]1c1cccnc1
Ki: 3350 nM

CN1C[C@@H](O)C[C@H]1c1cccnc1
Ki: 27.6 nM

C[C@@H]1CC[C@@H](c2cccnc2)N1C
Ki: 1210 nM

CN1C[C@@H](CO)C[C@H]1c1cccnc1
Ki: 158 nM

CN1CCC(CF)[C@H]1c1cccnc1 (some centres not stated)
Ki: 98.5 nM

COCC1CCN(C)[C@@H]1c1cccnc1 (some centres not stated)
Ki: 2030 nM

CSC[C@H]1C[C@@H](c2cccnc2)N(C)C1
Ki: 493 nM

CN1C[C@@H](OS(C)(=O)=O)C[C@H]1c1cccnc1
Ki: 364 nM

COC[C@H]1C[C@@H](c2cccnc2)N(C)C1
Ki: 510 nM

CN1C[C@H](C#N)C[C@H]1c1cccnc1
Ki: 82 nM

CCCC[C@@H]1CC[C@@H](c2cccnc2)N1C
Ki: 1380 nM

CN1CCC(CO)[C@H]1c1cccnc1 (some centres not stated)
Ki: 619 nM

CO[C@H]1C[C@@H](c2cccnc2)N(C)C1
Ki: 36.6 nM

CN1C[C@@H](CC#N)C[C@H]1c1cccnc1
Ki: 52 nM

CC1CN(C)[C@H](c2cccnc2)C1C (some centres not stated)
Ki: 96.4 nM

CC(=O)O[C@H]1C[C@@H](c2cccnc2)N(C)C1
Ki: 103 nM

CN1C[C@@H](Cc2ccccc2)C[C@H]1c1cccnc1
Ki: 119 nM

CN1C[C@H](CO)C[C@H]1c1cccnc1
Ki: 294 nM

CN1[C@@H](c2ccccc2)CC[C@H]1c1cccnc1
Ki: 1240 nM
